The source of these data is US20250127761A1, “Telmisartan Nanosuspension for Therapy of Respiratory Infections and Methods of Making and Using Same” (Soligenix, Inc., priority 2022, published 2025).

The conditions of data set [1]: cynomolgus monkey, in vivo.
The test system of a further data set is ANG II type 1 receptor. The data set can be described thus: Inhibition of ANG II-mediated intracellular calcium spike in lung smooth muscle cells. The format is cell-based. On the technique in general: Calcium assays in cells follow changes in intracellular calcium, usually with a dye or a luminescent sensor.

Regarding `CCCc1nc2c(C)cc(-c3nc4ccccc4n3C)cc2n1Cc1ccc(-c2ccccc2C(=O)O)cc1` [FD-TEL, telmisartan], the creatine kinase result in data set [1] is recorded as “significant increase”. The “ANG II-mediated transient [Ca2+]i spike” value in the data set on ANG II type 1 receptor is “equally and entirely abrogated”.
